According to PubChem BioAssay (NCI):
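1) Cells in 96-well plates. 2) Compound, 48 h, 5 concentrations. 3) Linear interpolation between surrounding doses. 4) Unreached endpoint = highest concentration. TGI marks complete inhibition of growth.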

How the values were obtained:
Assay in all cases: NCI-60 cell line screen, 48 h
SK-MEL-2 melanoma = tested on: SK-MEL-2 melanoma
TK-10 renal = tested on: TK-10 renal
COLO 205 colon = tested on: COLO 205 colon
IGROV1 ovarian = tested on: IGROV1 ovarian
HOP-62 NSCLC = tested on: HOP-62 NSCLC
EKVX NSCLC = tested on: EKVX NSCLC
DMS 114 small cell lung = tested on: DMS 114 small cell lung
OVCAR-8 ovarian = tested on: OVCAR-8 ovarian
LOX IMVI melanoma = tested on: LOX IMVI melanoma
SNB-75 CNS = tested on: SNB-75 CNS
786-0 renal = tested on: 786-0 renal
MALME-3M melanoma = tested on: MALME-3M melanoma
MOLT-4 leukemia = tested on: MOLT-4 leukemia
LXFL 529 NSCLC = tested on: LXFL 529 NSCLC
SF-539 CNS = tested on: SF-539 CNS
SNB-19 CNS = tested on: SNB-19 CNS
U251 CNS = tested on: U251 CNS
A549 NSCLC = tested on: A549 NSCLC
ACHN renal = tested on: ACHN renal
SW-620 colon = tested on: SW-620 colon
DLD-1 colon = tested on: DLD-1 colon
NCI-H23 lung = tested on: NCI-H23 lung
HT29 colon = tested on: HT29 colon
DMS 273 small cell lung = tested on: DMS 273 small cell lung
RXF 393 renal = tested on: RXF 393 renal
SF-295 CNS = tested on: SF-295 CNS
NCI-H522 lung = tested on: NCI-H522 lung
M14 melanoma = tested on: M14 melanoma
HOP-18 NSCLC = tested on: HOP-18 NSCLC
SNB-78 CNS = tested on: SNB-78 CNS
NCI-H460 lung = tested on: NCI-H460 lung
UACC-257 melanoma = tested on: UACC-257 melanoma
SR leukemia = tested on: SR leukemia
SK-MEL-5 melanoma = tested on: SK-MEL-5 melanoma
NCI-H226 lung = tested on: NCI-H226 lung
SK-MEL-28 melanoma = tested on: SK-MEL-28 melanoma
OVCAR-4 ovarian = tested on: OVCAR-4 ovarian
KM20L2 colon = tested on: KM20L2 colon
CAKI-1 renal = tested on: CAKI-1 renal
XF 498 CNS = tested on: XF 498 CNS
OVCAR-5 ovarian = tested on: OVCAR-5 ovarian
HCC-2998 colon = tested on: HCC-2998 colon
A498 renal = tested on: A498 renal
K-562 leukemia = tested on: K-562 leukemia
UACC-62 melanoma = tested on: UACC-62 melanoma
RPMI-8226 leukemia = tested on: RPMI-8226 leukemia
SN12C renal = tested on: SN12C renal
SF-268 CNS = tested on: SF-268 CNS
HCT-15 colon = tested on: HCT-15 colon
KM12 colon = tested on: KM12 colon
UO-31 renal = tested on: UO-31 renal
HCT-116 colon = tested on: HCT-116 colon
OVCAR-3 ovarian = tested on: OVCAR-3 ovarian

`O=C(c1ccccc1)c1ccc2cccc(OC3OC(CO)C(O)C(O)C3O)c2n1` (stereo not drawn) was tested, and the TGI (SK-MEL-2 melanoma) was > 100 µM, the TGI (TK-10 renal) was > 100 µM and the TGI (COLO 205 colon) was > 100 µM. The TGI (IGROV1 ovarian) was > 100 µM, the TGI (HOP-62 NSCLC) was > 100 µM and the TGI (EKVX NSCLC) was > 100 µM. The TGI (DMS 114 small cell lung) was > 100 µM, the TGI (OVCAR-8 ovarian) was > 100 µM and the TGI (LOX IMVI melanoma) was > 100 µM. The TGI (SNB-75 CNS) was > 100 µM, the TGI (786-0 renal) was > 100 µM and the TGI (MALME-3M melanoma) was > 100 µM. The TGI (MOLT-4 leukemia) was > 100 µM, the TGI (LXFL 529 NSCLC) was > 100 µM and the TGI (SF-539 CNS) was > 100 µM. For the same compound, the TGI (SNB-19 CNS) was > 100 µM, the TGI (U251 CNS) was > 100 µM and the TGI (A549 NSCLC) was > 100 µM. For the same compound, the TGI (ACHN renal) was > 100 µM, the TGI (SW-620 colon) was > 100 µM and the TGI (DLD-1 colon) was > 100 µM. For the same compound, the TGI (NCI-H23 lung) was > 100 µM, the TGI (HT29 colon) was > 100 µM and the TGI (DMS 273 small cell lung) was > 100 µM. For the same compound, the TGI (RXF 393 renal) was > 100 µM, the TGI (SF-295 CNS) was > 100 µM and the TGI (NCI-H522 lung) was > 100 µM. For the same compound, the TGI (M14 melanoma) was > 100 µM, the TGI (HOP-18 NSCLC) was > 100 µM and the TGI (SNB-78 CNS) was > 100 µM. The TGI (NCI-H460 lung) was > 100 µM, the TGI (UACC-257 melanoma) was > 100 µM and the TGI (SR leukemia) was > 100 µM. The TGI (SK-MEL-5 melanoma) was > 100 µM, the TGI (NCI-H226 lung) was > 100 µM and the TGI (SK-MEL-28 melanoma) was > 100 µM. For the same compound, the TGI (OVCAR-4 ovarian) was > 100 µM, the TGI (KM20L2 colon) was > 100 µM and the TGI (CAKI-1 renal) was > 100 µM. The TGI (XF 498 CNS) was > 100 µM, the TGI (OVCAR-5 ovarian) was > 100 µM and the TGI (HCC-2998 colon) was > 100 µM. The TGI (A498 renal) was 82 µM, the TGI (K-562 leukemia) was > 100 µM and the TGI (UACC-62 melanoma) was > 100 µM. The TGI (RPMI-8226 leukemia) was > 100 µM, the TGI (SN12C renal) was > 100 µM and the TGI (SF-268 CNS) was > 100 µM. For the same compound, the TGI (HCT-15 colon) was > 100 µM, the TGI (KM12 colon) was > 100 µM and the TGI (UO-31 renal) was > 100 µM. For the same compound, the TGI (HCT-116 colon) was > 100 µM and the TGI (OVCAR-3 ovarian) was > 100 µM.
